Results as given in ChEMBL document CHEMBL1201862, “PubChem BioAssay data set” (2004).
Each block holds one molecule with its values, some of them ahead of it. Calls of active or inactive are those of the source.

Key:
H9c2 = assay: cells; type: functional, cell-based; conditions: Rattus norvegicus, H9c2, Myocardium;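 further: confirmatory concentration-response retest of ultra-high-throughput screening hits for modulation of myocardial damage; cell death induced by hydrogen peroxide oxidative stress; compound pretreatment for 60 min then peroxide exposure for 2 h; potency is for protecting the cells against peroxide damage rather than for killing them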
BJ [1] = assay: cytotoxicity toward BJ-TERT fibroblasts, dose response, cell-based, RAS-independent, luminescence (AID 1933); type: functional; conditions: Homo sapiens
BJ [2] = assay: cytotoxicity toward BJ-TERT-LT-ST fibroblasts, dose response, cell-based, RAS-independent, luminescence (AID 1935); type: functional; conditions: Homo sapiens;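 further: BJ fibroblasts immortalized with TERT plus LT and ST oncogenes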
BJ [3] = assay: cells; type: functional, cell-based; conditions: Homo sapiens
[4] = cytotoxicity toward DRD oncogenic fibroblasts, dose response, cell-based, non-viral oncogenic, luminescence (AID 1934); type: functional; conditions: Homo sapiens
[5] = target: T1, Rac GTPase-activating protein 1 (Homo sapiens, UniProt Q9H0H5); assay: MgcRacGAP GTPase-activating activity inhibitors, confirmation, biochemical, ADP Hunter fluorescence, primary and confirmatory (AID 624330); type: functional
T1 sequence (Q9H0H5 whole entry): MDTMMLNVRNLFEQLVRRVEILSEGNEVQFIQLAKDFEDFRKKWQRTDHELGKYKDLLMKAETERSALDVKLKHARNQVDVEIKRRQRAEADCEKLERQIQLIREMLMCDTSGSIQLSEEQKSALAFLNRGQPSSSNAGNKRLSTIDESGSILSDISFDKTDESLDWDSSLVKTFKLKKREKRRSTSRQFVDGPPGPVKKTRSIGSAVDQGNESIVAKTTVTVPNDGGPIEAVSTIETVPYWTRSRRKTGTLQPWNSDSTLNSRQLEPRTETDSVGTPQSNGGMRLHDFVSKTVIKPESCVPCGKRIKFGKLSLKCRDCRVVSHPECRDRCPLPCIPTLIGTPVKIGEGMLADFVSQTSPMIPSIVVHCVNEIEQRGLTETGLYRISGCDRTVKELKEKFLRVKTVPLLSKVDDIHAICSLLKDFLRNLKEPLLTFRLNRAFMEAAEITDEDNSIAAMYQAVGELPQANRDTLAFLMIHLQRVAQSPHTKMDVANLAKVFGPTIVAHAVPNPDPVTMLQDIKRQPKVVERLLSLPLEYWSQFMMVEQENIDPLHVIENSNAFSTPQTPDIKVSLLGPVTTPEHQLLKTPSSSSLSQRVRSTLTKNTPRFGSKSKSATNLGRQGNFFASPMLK

[6] = target: T2, Heat shock factor protein 1 (Mus musculus, UniProt P38532); assay: inhibition of MG132-induced HSE-luciferase signal, confirmation, cell-based, NIH3T3, luminescence, dose retest (AID 2382); type: functional;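 further: NIH3T3 fibroblasts with HSF1-driven luciferase reporter stressed by proteasome inhibitor MG132; luminescence from HSF1-driven luciferase expression after 8 hours of MG132 stress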
T2 sequence (P38532 whole entry): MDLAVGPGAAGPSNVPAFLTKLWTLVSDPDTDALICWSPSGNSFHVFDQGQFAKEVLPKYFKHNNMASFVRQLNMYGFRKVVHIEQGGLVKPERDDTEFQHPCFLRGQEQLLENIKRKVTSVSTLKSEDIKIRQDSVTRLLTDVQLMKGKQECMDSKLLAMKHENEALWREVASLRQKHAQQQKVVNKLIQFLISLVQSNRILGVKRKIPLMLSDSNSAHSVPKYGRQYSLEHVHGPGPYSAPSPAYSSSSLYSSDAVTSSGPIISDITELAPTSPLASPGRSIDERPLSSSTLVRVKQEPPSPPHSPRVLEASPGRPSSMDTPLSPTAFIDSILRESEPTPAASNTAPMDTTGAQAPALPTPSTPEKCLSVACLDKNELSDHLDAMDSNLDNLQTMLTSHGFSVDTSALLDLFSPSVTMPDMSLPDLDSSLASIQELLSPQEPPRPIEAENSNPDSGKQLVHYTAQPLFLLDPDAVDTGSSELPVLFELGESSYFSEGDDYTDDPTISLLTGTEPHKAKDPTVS

[7] = target: T3, Zinc finger protein mex-5 (Caenorhabditis elegans, UniProt Q9XUB2); assay: MEX-5/TCR-2 RNA interaction inhibitors, dose response, biochemical, C. elegans, fluorescence polarization (AID 1960)
T3 sequence (Q9XUB2 whole entry): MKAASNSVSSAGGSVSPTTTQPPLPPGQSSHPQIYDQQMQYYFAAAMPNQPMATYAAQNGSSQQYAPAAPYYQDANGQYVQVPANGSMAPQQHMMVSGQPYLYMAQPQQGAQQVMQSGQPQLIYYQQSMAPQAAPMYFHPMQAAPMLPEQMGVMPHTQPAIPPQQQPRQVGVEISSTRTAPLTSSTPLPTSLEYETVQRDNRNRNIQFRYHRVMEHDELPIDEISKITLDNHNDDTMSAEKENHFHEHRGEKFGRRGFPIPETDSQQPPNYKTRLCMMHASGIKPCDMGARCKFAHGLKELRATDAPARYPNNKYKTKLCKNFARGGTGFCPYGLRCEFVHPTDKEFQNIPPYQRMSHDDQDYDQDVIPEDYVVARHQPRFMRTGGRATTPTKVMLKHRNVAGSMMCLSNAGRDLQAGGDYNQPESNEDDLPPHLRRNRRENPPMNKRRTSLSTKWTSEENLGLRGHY

[8] = target: T4, RNA-binding protein pos-1 (Caenorhabditis elegans, UniProt G5EF15); assay: inhibitors of POS-1/mex-3 RNA binding, dose response, biochemical, fluorescence polarization (AID 1964);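 further: purified POS-1 fused to maltose binding protein made in E. coli; potency of compounds blocking POS-1 binding to fluorescent RNA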
T4 sequence (G5EF15 whole entry): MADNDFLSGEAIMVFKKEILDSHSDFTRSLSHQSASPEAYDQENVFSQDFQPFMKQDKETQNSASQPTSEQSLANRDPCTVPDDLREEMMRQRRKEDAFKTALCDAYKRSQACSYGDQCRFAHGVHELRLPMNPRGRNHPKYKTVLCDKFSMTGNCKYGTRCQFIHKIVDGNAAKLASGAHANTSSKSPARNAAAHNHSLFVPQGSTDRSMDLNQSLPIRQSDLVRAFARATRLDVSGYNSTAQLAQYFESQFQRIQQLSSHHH

Fatty acid synthase [9] = target: T5, Fatty acid synthase (Homo sapiens, UniProt P49327); assay: FAS thioesterase domain inhibitors, dose response, biochemical, endpoint fluorescence intensity, uHTS hits (AID 624327); type: functional;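 further: fluorescence from hydrolysis of an O-methyl fluorescein acyl ester substrate by the enzyme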
Fatty acid synthase [10] = target: T5, Fatty acid synthase; assay: FAS thioesterase domain inhibitors, dose response, biochemical, kinetic fluorescence intensity (AID 624326); type: functional;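 further: rate of fluorescence rise from hydrolysis of a fluorogenic O-methyl fluorescein ester substrate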
[11] = target: T2, Heat shock factor protein 1; assay: HSF1 potentiators in luciferase reporter cells, confirmation, cell-based, NIH3T3, luminescence, dose retest (AID 435004); type: functional;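 further: stress induced by proteasome inhibitor MG132 added 30 min after compound; luciferase reporter driven by HSF1 response element in NIH3T3 cells; actives raise luminescence as potentiators of the MG132 stress response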
Cytochrome P450 2C19 = Cytochrome P450 2C19 (Homo sapiens, UniProt P33261); assay: Cytochrome panel assay with activity outcomes. Panel member name: p450-cyp2c19 Compounds with AC50 equal or less than 10 uM are considered active; type: functional
Cytochrome P450 3A4 = Cytochrome P450 3A4 (Homo sapiens, UniProt P08684);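 further: CYP3A4 tested as one member of a cytochrome P450 panel screen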
SN12K1 = assay: cells; type: functional; conditions: Homo sapiens

T5 sequence (P49327 whole entry, the tested form may be a part): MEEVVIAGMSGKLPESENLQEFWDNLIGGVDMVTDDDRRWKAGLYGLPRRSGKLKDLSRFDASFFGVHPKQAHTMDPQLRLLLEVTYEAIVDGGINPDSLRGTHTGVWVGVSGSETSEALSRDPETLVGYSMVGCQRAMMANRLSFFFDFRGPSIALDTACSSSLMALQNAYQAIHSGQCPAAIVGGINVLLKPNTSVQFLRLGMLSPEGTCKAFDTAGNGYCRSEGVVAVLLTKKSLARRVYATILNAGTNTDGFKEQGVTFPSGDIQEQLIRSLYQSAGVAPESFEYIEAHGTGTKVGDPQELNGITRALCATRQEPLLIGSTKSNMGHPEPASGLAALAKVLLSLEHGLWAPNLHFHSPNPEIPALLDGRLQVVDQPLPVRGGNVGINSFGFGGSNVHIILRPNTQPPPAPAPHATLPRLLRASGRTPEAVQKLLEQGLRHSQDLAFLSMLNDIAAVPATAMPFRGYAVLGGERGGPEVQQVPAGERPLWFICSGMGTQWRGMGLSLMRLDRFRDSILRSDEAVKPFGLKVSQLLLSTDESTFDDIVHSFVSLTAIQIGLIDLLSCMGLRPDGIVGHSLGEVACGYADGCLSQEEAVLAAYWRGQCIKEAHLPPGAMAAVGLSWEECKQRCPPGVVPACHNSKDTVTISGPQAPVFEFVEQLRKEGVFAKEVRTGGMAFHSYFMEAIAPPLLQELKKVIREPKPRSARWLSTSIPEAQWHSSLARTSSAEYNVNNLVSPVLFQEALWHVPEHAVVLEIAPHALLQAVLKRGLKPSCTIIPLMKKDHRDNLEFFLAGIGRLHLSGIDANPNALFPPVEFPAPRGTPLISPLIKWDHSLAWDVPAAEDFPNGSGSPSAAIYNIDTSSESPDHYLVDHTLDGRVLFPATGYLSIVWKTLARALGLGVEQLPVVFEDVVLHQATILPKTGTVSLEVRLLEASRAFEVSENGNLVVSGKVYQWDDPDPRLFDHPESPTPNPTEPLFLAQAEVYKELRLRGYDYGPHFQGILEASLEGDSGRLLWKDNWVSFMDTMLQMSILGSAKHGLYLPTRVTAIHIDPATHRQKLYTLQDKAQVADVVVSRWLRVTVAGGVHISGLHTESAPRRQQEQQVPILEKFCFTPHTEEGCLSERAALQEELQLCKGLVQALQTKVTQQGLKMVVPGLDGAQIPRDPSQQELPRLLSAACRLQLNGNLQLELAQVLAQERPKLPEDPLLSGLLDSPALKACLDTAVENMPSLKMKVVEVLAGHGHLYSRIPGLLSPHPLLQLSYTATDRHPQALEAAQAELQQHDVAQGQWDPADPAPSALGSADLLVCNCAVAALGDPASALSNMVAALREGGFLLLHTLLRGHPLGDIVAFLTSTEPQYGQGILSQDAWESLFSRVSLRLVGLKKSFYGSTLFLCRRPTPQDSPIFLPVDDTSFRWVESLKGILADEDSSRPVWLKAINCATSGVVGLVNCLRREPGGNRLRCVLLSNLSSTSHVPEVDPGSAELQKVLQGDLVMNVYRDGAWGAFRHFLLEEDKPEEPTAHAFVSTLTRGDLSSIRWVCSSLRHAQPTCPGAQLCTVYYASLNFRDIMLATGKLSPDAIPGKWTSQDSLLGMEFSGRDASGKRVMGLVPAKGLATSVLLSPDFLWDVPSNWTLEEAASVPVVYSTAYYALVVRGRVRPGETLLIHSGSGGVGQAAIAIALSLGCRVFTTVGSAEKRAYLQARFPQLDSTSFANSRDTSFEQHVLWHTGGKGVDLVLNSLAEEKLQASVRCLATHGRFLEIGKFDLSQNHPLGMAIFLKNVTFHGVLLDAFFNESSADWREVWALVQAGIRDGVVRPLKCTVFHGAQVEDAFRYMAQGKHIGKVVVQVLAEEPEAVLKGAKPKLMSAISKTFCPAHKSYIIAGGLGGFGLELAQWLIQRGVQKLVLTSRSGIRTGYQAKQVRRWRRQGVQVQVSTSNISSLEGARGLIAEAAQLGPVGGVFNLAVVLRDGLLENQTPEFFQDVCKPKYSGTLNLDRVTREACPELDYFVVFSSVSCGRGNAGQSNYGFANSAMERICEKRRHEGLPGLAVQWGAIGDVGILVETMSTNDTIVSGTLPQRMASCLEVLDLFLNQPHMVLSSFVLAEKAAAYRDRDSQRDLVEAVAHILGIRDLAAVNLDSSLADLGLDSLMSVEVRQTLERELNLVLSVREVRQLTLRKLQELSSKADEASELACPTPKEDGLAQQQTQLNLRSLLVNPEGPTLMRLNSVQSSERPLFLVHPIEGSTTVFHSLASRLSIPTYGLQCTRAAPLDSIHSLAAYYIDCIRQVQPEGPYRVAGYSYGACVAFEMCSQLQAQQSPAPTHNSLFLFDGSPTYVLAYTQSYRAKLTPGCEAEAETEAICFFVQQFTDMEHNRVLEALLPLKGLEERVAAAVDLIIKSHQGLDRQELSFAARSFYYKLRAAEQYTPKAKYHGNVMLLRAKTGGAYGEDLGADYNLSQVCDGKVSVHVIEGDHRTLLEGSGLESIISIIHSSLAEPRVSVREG
Chain of Cytochrome P450 2C19 (P33261 whole entry): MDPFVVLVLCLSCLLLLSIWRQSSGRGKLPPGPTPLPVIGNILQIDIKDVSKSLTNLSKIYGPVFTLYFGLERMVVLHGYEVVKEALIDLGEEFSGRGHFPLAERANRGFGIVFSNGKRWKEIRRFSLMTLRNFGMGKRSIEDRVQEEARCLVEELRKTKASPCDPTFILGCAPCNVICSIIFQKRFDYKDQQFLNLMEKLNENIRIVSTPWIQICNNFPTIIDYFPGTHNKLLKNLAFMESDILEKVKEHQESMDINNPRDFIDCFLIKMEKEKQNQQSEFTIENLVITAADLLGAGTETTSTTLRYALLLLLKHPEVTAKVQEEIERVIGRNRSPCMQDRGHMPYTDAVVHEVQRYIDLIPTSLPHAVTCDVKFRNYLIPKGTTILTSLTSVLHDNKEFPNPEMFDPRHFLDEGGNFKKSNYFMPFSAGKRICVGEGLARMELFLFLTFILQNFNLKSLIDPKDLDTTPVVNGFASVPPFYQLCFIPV
Chain of Cytochrome P450 3A4 (P08684 whole entry): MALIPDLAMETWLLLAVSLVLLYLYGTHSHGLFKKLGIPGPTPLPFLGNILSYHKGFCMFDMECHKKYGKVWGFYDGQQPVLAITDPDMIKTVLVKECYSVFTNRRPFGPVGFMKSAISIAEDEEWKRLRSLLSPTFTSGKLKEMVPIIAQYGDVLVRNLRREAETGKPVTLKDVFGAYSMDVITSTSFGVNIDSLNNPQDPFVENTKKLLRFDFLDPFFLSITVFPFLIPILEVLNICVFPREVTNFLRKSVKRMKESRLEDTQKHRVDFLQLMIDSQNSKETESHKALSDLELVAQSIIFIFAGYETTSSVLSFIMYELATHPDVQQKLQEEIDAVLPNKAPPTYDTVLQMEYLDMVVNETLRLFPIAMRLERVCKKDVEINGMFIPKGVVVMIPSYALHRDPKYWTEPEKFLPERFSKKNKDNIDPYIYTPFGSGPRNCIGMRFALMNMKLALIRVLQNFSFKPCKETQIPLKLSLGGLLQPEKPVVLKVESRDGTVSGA

SMILES: Cn1c(-n2c(CCCN3C(=O)c4ccccc4C3=O)nc3ccccc3c2=O)nc2ccccc21
IC50 (H9c2): 15.3 µM (active)

SMILES: CCC1=Nc2cc(C(=O)NCCN3CCOCC3)ccc2Sc2ccccc21
EC50 (BJ [1]): > 150 µM (not active)
EC50 (BJ [2]): > 150 µM (not active)
EC50 (BJ [3]): > 150 µM (not active)
EC50 [4]: > 150 µM (not active)

IC50 [5]: 57.7 µM (active)
EC50 [6]: > 195 µM (not active)
SMILES: CN(C)c1ccc(NS(=O)(=O)c2cc(Cl)ccc2Cl)cc1

EC50 [7]: > 300 µM (not active)
EC50 [8]: > 300 µM (not active)
SMILES: Cc1ccc(NC(=O)Cn2c(=O)c(C)nc3ccccc32)cc1

SMILES: CCOC(=O)N1CCN(C(=O)CSc2nc(O)c3cnn(-c4ccc(C)cc4)c3n2)CC1
IC50 (H9c2): 31.6 µM (inactive)

IC50 (Fatty acid synthase [9]): 5.88 µM (active)
IC50 (Fatty acid synthase [10]): 4.94 µM (active)
SMILES: CCN(C(=O)CSc1ncnc2c1cnn2-c1ccccc1)C1CCS(=O)(=O)C1 (centres undefined)

IC50 [5]: 209 µM (active)
SMILES: O=C(CCC1CCCC1)N1CCN(C2CCCC2)CC1

SMILES: O=C(CCc1nc(O)c2ccccc2n1)NNC(=O)c1cccc(Cl)c1
IC50 (H9c2): > 79 µM (inactive)

SMILES: Cc1nn(-c2ccccc2)c(N2CCCC2)c1/C=N/NC(=O)c1cc(-c2ccccn2)nc2ccccc12
IC50 (H9c2): > 79 µM (inactive)

IC50 (Fatty acid synthase [9]): 7.65 µM (active)
IC50 (Fatty acid synthase [10]): 7.54 µM (active)
SMILES: Cc1cccc(COC[C@H](CC(C)C)N2CCN(C(=O)c3ccc(C(C)(C)C)cc3)CCC2=O)c1

IC50 [5]: 37.9 µM (active)
SMILES: CC/N=C1\S/C(=C\c2ccc(O)c(OCC)c2)C(=O)N1CC

SMILES: C/C(=N\NC(=O)CC1N=C(Cc2ccccc2)NNC1=O)c1ccc(C)cc1 (centres undefined)
EC50 (BJ [1]): > 150 µM (not active)
EC50 [11]: > 260 µM (inactive)
EC50 (BJ [2]): > 150 µM (inconclusive)
EC50 (BJ [3]): > 150 µM (not active)
EC50 [4]: 44.3 µM (active)

IC50 [5]: 113 µM (active)
SMILES: CN1CCCCC/C1=N\c1ccccc1C#N

SMILES: Fc1ccc(CSc2ccc3nnc(-c4cccnc4)n3n2)cc1
IC50 (H9c2): > 79 µM (inactive)

SMILES: COc1ccc(Cc2nnc(O)c3ccccc23)cc1OC
IC50 (H9c2): 7.28 µM (active)
AC50 (Cytochrome P450 2C19): 31.6 µM (inconclusive)
AC50 (Cytochrome P450 3A4): 22.4 µM (inconclusive)

SMILES: C[C@@](O)(/C=C/[C@H]1CC=CC(=O)O1)[C@@H](C[C@@H](O)\C=C/C=C\C=C\CO)OP(=O)(O)O [FOSTRIECIN SODIUM]
GI50 (SN12K1): 3.72 µM (inactive)
